Molecular target: T1, RORγ (Homo sapiens, UniProt P51449)
T1 construct: expressed in transfected cells; host or cells: 293FT cells (Invitrogen), expression vector pFN26A (Promega)
T1 sequence (P51449 269-508 limits assumed): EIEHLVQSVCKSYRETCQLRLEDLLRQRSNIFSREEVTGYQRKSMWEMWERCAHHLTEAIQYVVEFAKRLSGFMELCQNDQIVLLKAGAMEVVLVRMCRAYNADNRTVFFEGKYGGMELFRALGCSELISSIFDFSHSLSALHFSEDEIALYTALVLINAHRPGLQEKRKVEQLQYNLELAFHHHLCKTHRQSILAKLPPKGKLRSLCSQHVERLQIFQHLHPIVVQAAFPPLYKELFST
Assay: RORγ GAL4 reporter gene assay
Format: cell-based
Settings: inhibition of RORγ activity, GAL4-RORγ-LBD luciferase reporter in 293FT cells, overnight incubation; read-out: mean pIC50 (converted)
Protocol: Example inhibitors 1-166 were tested for their ability to inhibit RORγ activity in a RORγ GAL4 reporter gene assay. The assay procedure and results are described below.
RORγ GAL4 Reporter Gene Assay Description
A GAL4 one-hybrid reporter system employing luciferase readout was established to determine inhibition of RORγ in 293FT cells. The RORγ ligand-binding domain (LBD) was fused to the yeast GAL4 DNA binding domain (DBD) and placed under the control of the human cytomegalovirus (CMV) immediate early promoter, using expression vector pFN26A (Promega) and standard recombinant DNA cloning methods. To serve as a control in the assay, a similar vector was generated in which the GAL4-DBD was fused to Herpes simplex virus protein 16 (VP16), a constitutive transcriptional activator.
To monitor the inhibitory effect of compounds on RORγ, a transcriptional reporter construct was used. The pGL4.35 vector (Promega) contains nine copies of the GAL4 Upstream Activator Sequence (UAS). This sequence drives the transcription of the luciferase reporter gene luc2P in response to binding of a fusion protein containing the GAL4 DNA binding domain, as for example expressed by the GAL4-RORγ-LBD and GAL4-VP16 expression vectors described above. To allow a GAL4 fusion protein to drive the expression of the luciferase reporter, the pGL4.35 expression vector and the appropriate GAL4 fusion protein expression vector were bulk transfected in the 293FT cells using standard transfection techniques.
The day after transfection, cells were plated into 96 well plates, test compound was added and the plates were incubated overnight. Subsequently, the firefly luciferase activity was quantified using luciferase detection reagent and luminescence readout.
Detailed Assay Description
293FT cells (Invitrogen) were transfected with a GAL4 fusion protein expression vector (as described above) and the transcriptional reporter construct (pGL4.35, Promega). 60 μL of TransIT-293 transfection reagent (Mirus Bio) was added drop wise to 1500 μl Opti-MEM I Reduced Serum Medium (Invitrogen) and incubated at room temperature (RT) for 5 to 20 minutes. 1500 μL of this reagent mixture was added to 5 μg of GAL4 fusion protein expression vector and 5 μg of the transcriptional reporter construct, and incubated at RT for 20 minutes.
To harvest 293FT cells from a T75 flask, first the culture medium was taken off the cells. Subsequently, the cells were washed with Phosphate Buffered Saline (PBS) (Lonza), after which the PBS was removed. To dissociate the cells, 1 ml of TrypLE Express (Invitrogen) was added to the flask, followed by incubation at RT until the cells visually started to detach. Cells were collected in 5 mL of assay medium (DMEM culture medium (Lonza), 10% dialyzed FBS (Invitrogen) and Pen/Strep (Lonza)) to achieve a single cell suspension. 10×10^6 cells were spun down and re-suspended in 10 mL of assay medium. Subsequently, the cell suspension was added to the transfection mix tube, and then transferred as a whole to a T75 flask (Greiner), followed by overnight (16-24 hours) incubation at 37° C. and 5% CO2.
For compound screening, the cells were harvested (as described above) and counted. 13×10^6 cells were spun down, the supernatant was aspirated and the cells were re-suspended in 17.3 mL of assay medium obtaining a cell suspension of 0.75×10^6 cells/mL. 80 μL of cell suspension (60,000 cells) was plated per well into a white, flat bottom, tissue culture treated, 96 well screening plates (Greiner).
Test compounds were diluted, starting from a 10 mM dimethylsulfoxide (DMSO) stock solution, to serial dilutions in DMSO at 500× the final test concentration. Subsequently, these solutions were diluted to 5× the final test concentration in two 10-fold-dilution steps in assay medium. The final DMSO concentration of the 5× test compound solution was 1%. […]

| IC50 [nM] | Structure (SMILES) |
| --- | --- |
| ≤ 100 | CN(Cc1ccco1)C(=O)c1ccc(NC(=O)Cc2ccc(S(=O)(=O)CC3CC3)cc2)cc1 [Example 59, 4-[2-(4-cyclopropylmethanesulfonylphenyl)acetamido]-N-(furan-2-ylmethyl)-N-methylbenzamide] |
| ≤ 1000 | CC(C)(CN1CCOCC1)NC(=O)c1ccc(NC(=O)Cc2ccc(S(=O)(=O)CC3CC3)cc2)cc1 [Example 60, 4-[2-(4-cyclopropylmethanesulfonylphenyl)acetamido]-N-[2-methyl-1-(morpholin-4-yl)propan-2-yl]benzamide] |
| ≤ 100 | C=CCN(CC=C)C(=O)c1ccc(NC(=O)Cc2ccc(S(=O)(=O)CC3CC3)cc2)cc1 [Example 61, 4-[2-(4-cyclopropylmethanesulfonylphenyl)acetamido]-N,N-bis(prop-2-en-1-yl)benzamide] |
| ≤ 1000 | CC(C)CN(CC(C)C)C(=O)c1ccc(NC(=O)Cc2ccc(S(=O)(=O)NC3CC3)cc2)cc1 [Example 62, 4-{2-[4-(cyclopropylsulfamoyl)phenyl]acetamido}-N,N-bis(2-methylpropyl)benzamide] |
| ≤ 10 | O=C(Cc1ccc(S(=O)(=O)CC2CC2)cc1)Nc1ccc(C(=O)N2CCCCc3ccccc32)cc1 [Example 63, 2-(4-cyclopropylmethanesulfonylphenyl)-N-[4-(2,3,4,5-tetrahydro-1H-1-benzazepine-1-carbonyl)phenyl]acetamide] |
| ≤ 10 | CCN(C(=O)c1ccc(NC(=O)Cc2ccc(S(=O)(=O)CC3CC3)cc2)cc1)c1nc(C)c(C)s1 [Example 64, 4-[2-(4-cyclopropylmethanesulfonylphenyl)acetamido]-N-(4-methyl-5-methyl-1,3-thiazol-2-yl)-N-ethylbenzamide] |
| ≤ 1000 | CCCN(C(=O)c1ccc(NC(=O)Cc2ccc(S(=O)(=O)NC3CC3)cc2)cc1)c1cccnc1 [Example 65, 4-{2-[4-(cyclopropylsulfamoyl)phenyl]acetamido}-N-propyl-N-(pyridin-3-yl)benzamide] |
| ≤ 100 | O=C(Cc1ccc(S(=O)(=O)NC2CC2)cc1)Nc1ccc(C(=O)N2CCCCC2c2ccccc2)cc1 (centres unmarked) [Example 66, 2-[4-(cyclopropylsulfamoyl)phenyl]-N-[4-(2-phenylpipendine-1-carbonyl)phenyl]acetamide] |
| ≤ 1000 | CN(C(=O)c1ccc(NC(=O)Cc2ccc(S(=O)(=O)CC3CC3)cc2)cc1Cl)c1ccccn1 [Example 67, 2-chloro-4-[2-(4-cyclopropylmethanesulfonylphenyl)acetamido]-N-methyl-N-(pyridin-2-yl)benzamide] |
| ≤ 1000 | CC(C)(NC(=O)c1ccc(NC(=O)Cc2ccc(S(=O)(=O)CC3CC3)cc2)cc1)c1cccnc1 [Example 68, 4-[2-(4-cyclopropylmethanesulfonylphenyl)acetamido]-N-[2-(pyridin-3-yl)propan-2-yl]benzamide] |
| ≤ 1000 | CC(C)[C@@H](NC(=O)c1ccc(NC(=O)Cc2ccc(S(=O)(=O)CC3CC3)cc2)cc1)C(F)(F)F [Example 69, 4-[2-(4-cyclopropylmethanesulfonylphenyl)acetamido]-N-[(2R)-1,1,1-trifluoro-3-methylbutan-2-yl]benzamide] |
| ≤ 1000 | COc1ccccc1[C@H](C)NC(=O)c1ccc(NC(=O)Cc2ccc(S(=O)(=O)CC3CC3)cc2)cc1 [Example 70, 4-[2-(4-cyclopropylmethanesulfonylphenyl)acetamido]-N-[(1S)-1-(2-methoxyphenyl)ethyl]benzamide] |
| ≤ 1000 | N#CC(NC(=O)c1ccc(NC(=O)Cc2ccc(S(=O)(=O)CC3CC3)cc2)cc1)c1cccs1 (centres unmarked) [Example 72, N-[cyano(thiophen-2-yl)methyl]-4-[2-(4-cyclopropylmethanesulfonylphenyl)acetamido]benzamide] |
| ≤ 1000 | N#CC(NC(=O)c1ccc(NC(=O)Cc2ccc(S(=O)(=O)CC3CC3)cc2)cc1)c1ccccc1 (centres unmarked) [Example 73, N-[cyano(phenyl)methyl]-4-[2-(4-cyclopropylmethanesulfonylphenyl)acetamido]benzamide] |
| ≤ 100 | O=C(Cc1ccc(S(=O)(=O)CC2CC2)cc1)Nc1ccc(C(=O)Nc2ccccc2OC(F)(F)F)cc1 [Example 74, 4-[2-(4-cyclopropylmethanesulfonylphenyl)acetamido]-N-[2-(trifluoromethoxy)phenyl]benzamide] |
| ≤ 100 | Cc1cccc(C)c1NC(=O)c1ccc(NC(=O)Cc2ccc(S(=O)(=O)CC3CC3)cc2)cc1 [Example 75, 4-[2-(4-cyclopropylmethanesulfonylphenyl)acetamido]-N-(2,6-dimethylphenyl) benzamide] |
| ≤ 1000 | O=C(Cc1ccc(S(=O)(=O)CC2CC2)cc1)Nc1ccc(C(=O)N[C@H](c2ccc(Cl)cc2)C(F)(F)F)cc1 [Example 76, N-[(1R)-1-(4-chlorophenyl)-2,2,2-trifluoroethyl]-4-[2-(4-cyclopropylmethanesulfonylphenyl)acetamido]benzamide] |
| ≤ 1000 | COCCN(C(=O)c1ccc(NC(=O)Cc2ccc(S(=O)(=O)CC3CC3)cc2)cc1)C1CC1 [Example 79, N-cyclopropyl-4-[[2-[4-(cyclopropylmethylsulfonyl)phenyl]acetyl]amino]-N-(2-methoxyethyl)benzamide] |
| ≤ 10 | CCCN(C(=O)c1ccc(NC(=O)Cc2ccc(S(=O)(=O)CC3CC3)cc2)cc1)c1ccsc1 [Example 81, 4-[2-(4-cyclopropylmethanesulfonylphenyl)acetamido]-N-propyl-N-(thiophen-3-yl)benzamide] |
| ≤ 100 | CCCCN(C(=O)c1ccc(NC(=O)Cc2ccc(S(=O)(=O)CC3CC3)cc2)cc1)c1nccs1 [Example 82, N-butyl-4-[2-(4-cyclopropylmethanesulfonylphenyl)acetamido]-N-(1,3-thiazol-2-yl)benzamide] |
| ≤ 10 | CCCN(C(=O)c1ccc(NC(=O)Cc2ccc(S(=O)(=O)CC3CC3)cc2)cc1)c1nccs1 [Example 83, 4-[2-(4-cyclopropylmethanesulfonylphenyl)acetamido]-N-propyl-N-(1,3-thiazol-2-yl)benzamide] |
| ≤ 100 | CCN(C(=O)c1ccc(NC(=O)Cc2ccc(S(=O)(=O)CC3CC3)cc2)cc1)c1nccs1 [Example 84, 4-[2-(4-cyclopropylmethanesulfonylphenyl)acetamido]-N-ethyl-N-(1,3-thiazol-2-yl)benzamide] |
| ≤ 1000 | CN(C(=O)c1ccc(NC(=O)Cc2ccc(S(=O)(=O)CC3CC3)cc2)cc1)c1nccs1 [Example 85, 4-[2-(4-cyclopropylmethanesulfonylphenyl)acetamido]-N-methyl-N-(1,3-thiazol-2-yl)benzamide] |
| ≤ 10 | CCCN(C(=O)c1ccc(NC(=O)Cc2ccc(S(=O)(=O)CC3CC3)cc2)cc1)c1cc(C)nn1C [Example 86, 4-[2-(4-cyclopropylmethanesulfonylphenyl)acetamido]-N-(1,3-dimethyl-1H-pyrazol-5-yl)-N-propylbenzamide] |
| ≤ 10 | CCCN(C(=O)c1ccc(NC(=O)Cc2ccc(S(=O)(=O)CC3CC3)cc2)cc1)c1cc(C)on1 [Example 87, 4-[2-(4-cyclopropylmethanesulfonylphenyl)acetamido]-N-(5-methyl-1,2-oxazol-3-yl)-N-propylbenzamide] |
| ≤ 10 | CCN(C(=O)c1ccc(NC(=O)Cc2ccc(S(=O)(=O)CC3CC3)cc2)cc1)c1cc(C)nn1C [Example 88, 4-[2-(4-cyclopropylmethanesulfonylphenyl)acetamido]-N-(1,3-dimethyl-1H-pyrazol-5-yl)-N-ethylbenzamide] |
